This is an account of results in patent US12662451B2, “Chemical compounds and uses thereof” (GLAXOSMITHKLINE INTELLECTUAL PROPERTY (NO.4) LIMITED, priority 2023, dated 2026).

Like-named read-outs stand apart in the source and are kept apart here.

Data set [1] relates to SW48 human colorectal cancer cells. Put plainly: Calculated free drug potency in SW48 cell assay, corrected with media free fraction (Example C). It counts as cell-based. To be noted: Homo sapiens, SW48, SW48 pCC50 corrected with measured free fraction in cell assay media. Summed up:
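Compound spiked at nominal 1 μM into cell assay medium and dialysed against PBS (100 mM sodium phosphate, 150 mM NaCl, pH 7.4) by rapid equilibrium dialysis, 4 h, 37 °C, shaking. Percent unbound from LC-MS/MS peak area ratios (240 min vs 0 min); cell assay concentrations corrected by this free fraction.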

For data set [2], the system named is SW48 human colorectal cancer cells (MSI-H cancer cells). Put plainly: SW48 cell viability, CellTiter-Glo, 120 hours (Example B). As to conditions: Homo sapiens. On the technique in general: Cellular ATP, detected with luciferase, serves as a proxy for viable cell number.
The nature of data set [3]: Cell culture media unbound percentage and stability by rapid equilibrium dialysis (Example C). As to conditions: bovine, cell assay medium (RPMI-1640 with 10% fetal bovine serum), pH 7.4, rapid equilibrium dialysis, 4 hours at 37° C., read-out: Cell Culture Media Binding (% unbound). The format is in vitro ADME. Summed up:
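Compound spiked into cell culture medium at nominal 1 μM and dialysed against PBS (100 mM sodium phosphate + 150 mM NaCl, pH 7.4) by rapid equilibrium dialysis, triplicate, 4 h at 37° C with shaking. LC-MS/MS peak area ratios gave percent unbound (receiver/donor) and percent stability (240 min vs 0 min).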

For data set [4], the target named is T1, recombinant full-length WRN protein (1-1432) (Homo sapiens, UniProt Q14191).
T1 construct: recombinant full-length WRN protein (1-1432)
T1 sequence (Q14191 whole entry): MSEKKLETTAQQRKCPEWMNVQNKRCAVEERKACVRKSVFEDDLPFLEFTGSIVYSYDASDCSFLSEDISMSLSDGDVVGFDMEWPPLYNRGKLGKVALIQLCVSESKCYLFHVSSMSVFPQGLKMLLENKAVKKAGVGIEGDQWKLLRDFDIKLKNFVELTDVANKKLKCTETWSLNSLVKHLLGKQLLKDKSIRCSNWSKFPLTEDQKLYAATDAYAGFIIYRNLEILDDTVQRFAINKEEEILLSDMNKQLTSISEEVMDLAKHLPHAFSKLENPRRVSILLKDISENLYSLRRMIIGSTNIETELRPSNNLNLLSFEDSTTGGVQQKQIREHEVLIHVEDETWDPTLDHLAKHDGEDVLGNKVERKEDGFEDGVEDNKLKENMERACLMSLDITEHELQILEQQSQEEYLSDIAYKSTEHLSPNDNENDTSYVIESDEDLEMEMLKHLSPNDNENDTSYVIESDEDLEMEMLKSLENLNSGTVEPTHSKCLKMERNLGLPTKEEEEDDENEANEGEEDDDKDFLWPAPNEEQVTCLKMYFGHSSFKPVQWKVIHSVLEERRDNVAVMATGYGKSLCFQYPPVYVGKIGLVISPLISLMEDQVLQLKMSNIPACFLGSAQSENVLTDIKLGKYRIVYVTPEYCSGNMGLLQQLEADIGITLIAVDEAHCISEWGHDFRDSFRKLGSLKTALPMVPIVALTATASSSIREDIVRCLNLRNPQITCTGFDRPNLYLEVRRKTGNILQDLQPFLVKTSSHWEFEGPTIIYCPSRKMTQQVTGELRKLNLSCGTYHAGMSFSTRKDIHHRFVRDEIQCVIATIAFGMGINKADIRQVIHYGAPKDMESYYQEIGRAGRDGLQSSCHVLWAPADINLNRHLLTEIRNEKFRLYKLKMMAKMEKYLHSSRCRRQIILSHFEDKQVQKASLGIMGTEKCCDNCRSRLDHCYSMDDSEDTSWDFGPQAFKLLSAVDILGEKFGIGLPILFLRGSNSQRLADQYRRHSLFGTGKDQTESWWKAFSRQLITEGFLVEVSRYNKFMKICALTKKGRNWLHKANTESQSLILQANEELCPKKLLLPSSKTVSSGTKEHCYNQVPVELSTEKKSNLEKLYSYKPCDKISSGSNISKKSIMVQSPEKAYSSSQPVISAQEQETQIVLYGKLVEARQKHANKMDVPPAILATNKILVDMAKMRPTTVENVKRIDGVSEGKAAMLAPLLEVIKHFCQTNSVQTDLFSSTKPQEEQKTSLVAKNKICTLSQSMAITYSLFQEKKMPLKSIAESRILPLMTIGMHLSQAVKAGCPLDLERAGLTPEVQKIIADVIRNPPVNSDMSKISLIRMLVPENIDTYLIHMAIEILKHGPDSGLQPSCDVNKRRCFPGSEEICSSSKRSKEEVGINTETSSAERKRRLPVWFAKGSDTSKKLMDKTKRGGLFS
Put plainly: WRN unwinding activity, fluorogenic 384-well assay (Example A). To be noted: WRN unwinding activity, 4 hr; Table 2; read-out: 4 hr UNW pIC50 (converted). The format is biochemical. The gist of the method:
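200 pM enzyme (2× stock) preincubated with compound 4 h at ambient temperature, then 200 μM ATP and 12 nM quenched TAMRA-labelled dsDNA (2× stocks) added for 60 min; EDTA-quenched. Buffer 25 mM Tris pH 8.0, 5 mM NaCl, 2 mM MgCl2. Fluorescence at 525/598 nm; pIC50 from four-parameter fit.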

The mark [5] stands for this setting: SW48, 120 h, read-out: SW48 pCC50, SW48 cell viability, 120 hours incubation (converted), Table 2.
The mark [6] stands for this setting: SW48, read-out: SW48 pCC50, measured potency from Example B, as repeated in Table 3 (converted).

`Cc1nc2cc(S(=O)(=O)N(C)c3ccc([C@H]4C[C@@H](OC[C@@H]5CCOC5)C[C@@H](C(=O)Nc5ccc(C(F)(F)F)cc5F)[C@@H]4C(=O)O)cc3)ccc2n1C` (stereo in doubt) [Example 320, (1R*,2R*,4R*,6S*)-2-((2-fluoro-4-(trifluoromethyl)phenyl)carbamoyl)-4-(((R)-tetrahydrofuran-3-yl)methoxy)-6-(4-((N,1,2-trimethyl-1H-benzo[d]imidazole)-5-sulfonamido)phenyl)cyclohexane-1-carboxylic acid]: the CC50 was 8.91 nM in data set [1], 79.4 nM in data set [2] (setting [5]) and 79.4 nM in data set [2] (setting [6]). Also, in data set [3], the fraction unbound at 4 h, 1 µM is 0.112. The IC50 in data set [4] was 3.98 nM.

Regarding `Cc1nc2cc(S(=O)(=O)N(C)c3ccc([C@@H]4C[C@H](O[C@@H]5CCOC5)C[C@H](C(=O)Nc5ccc(C(F)(F)F)cc5F)[C@H]4C(=O)O)cc3)ccc2n1C` (stereo in doubt) [Example 322, (1R*,2R*,4R*,6S*)-2-((2-fluoro-4-(trifluoromethyl)phenyl)carbamoyl)-4-(((R)-tetrahydrofuran-3-yl)oxy)-6-(4-((N,1,2-trimethyl-1H-benzo[d]imidazole)-5-sulfonamido)phenyl)cyclohexane-1-carboxylic acid], the CC50 was 3630 nM in data set [1] and 10000 nM in data set [2] (setting [5]). The fraction unbound at 4 h, 1 µM in data set [3] was 0.362. The IC50 in data set [4] was 20 nM.

Regarding `Cc1nc2cc(S(=O)(=O)N(C)c3ccc([C@H]4C[C@@H](O[C@H]5CCOC5)C[C@@H](C(=O)Nc5ccc(C(F)(F)F)cc5F)[C@@H]4C(=O)O)cc3)ccc2n1C` (stereo in doubt) [Example 323, (1R*,2R*,4R*,6S*)-2-((2-fluoro-4-(trifluoromethyl)phenyl)carbamoyl)-4-(((S)-tetrahydrofuran-3-yl)oxy)-6-(4-((N,1,2-trimethyl-1H-benzo[d]imidazole)-5-sulfonamido)phenyl)cyclohexane-1-carboxylic acid], the values for the CC50 in data set [1], in data set [2] (setting [5]) and in data set [2] (setting [6]) were 14.5 nM, 100 nM and 100 nM, respectively. For the same molecule, the fraction unbound at 4 h, 1 µM in data set [3] turned out to be 0.144. The IC50 in data set [4] was 1.58 nM.

On to `Cc1nc2cc(S(=O)(=O)N(C)c3ccc([C@H]4C[C@@H](OC5CCC5)C[C@@H](C(=O)Nc5ccc(C(F)(F)F)cc5F)[C@@H]4C(=O)O)cc3)ccc2n1C` (stereo in doubt) [Example 325, rel-(1R,2R,4R,6S)-4-cyclobutoxy-2-((2-fluoro-4-(trifluoromethyl)phenyl)carbamoyl)-6-(4-((N,1,2-trimethyl-1H-benzo[d]imidazole)-5-sulfonamido)phenyl)cyclohexane-1-carboxylic acid], for which the CC50 in data set [1] was 17.4 nM; in data set [2] (setting [5]), 200 nM; in data set [2] (setting [6]), 200 nM. The fraction unbound at 4 h, 1 µM in data set [3] was 0.0862. In addition, in data set [4], the IC50 is 2 nM.

As for `Cc1nc2cc(S(=O)(=O)N(C)c3ccc([C@H]4C[C@@H](OC[C@@H]5COCCO5)C[C@@H](C(=O)Nc5ccc(C(F)(F)F)cc5F)[C@@H]4C(=O)O)cc3)ccc2n1C` (stereo in doubt) [Example 329, (1R*,2R*,4R*,6S*)-4-(((S)-1,4-dioxan-2-yl)methoxy)-2-((2-fluoro-4-(trifluoromethyl)phenyl)carbamoyl)-6-(4-((N,1,2-trimethyl-1H-benzo[d]imidazole)-5-sulfonamido)phenyl)cyclohexane-1-carboxylic acid], the CC50 is 12.9 nM in data set [1], 63.1 nM in data set [2] (setting [5]) and 63.1 nM in data set [2] (setting [6]). In data set [3], the fraction unbound at 4 h, 1 µM came to 0.205. In addition, in data set [4], the IC50 is 1.58 nM.

For `Cc1nc2cc(S(=O)(=O)N(C)c3ccc([C@@H]4C[C@H](NCC(F)(F)F)C[C@H](C(=O)Nc5ccc(C(F)(F)F)cc5F)[C@H]4C(=O)O)cc3)ccc2n1C` (stereo in doubt) [Example 333, rel-(1R,2R,4R,6S)-2-((2-fluoro-4-(trifluoromethyl)phenyl)carbamoyl)-4-((2,2,2-trifluoroethyl)amino)-6-(4-((N,1,2-trimethyl-1H-benzo[d]imidazole)-5-sulfonamido)phenyl)cyclohexane-1-carboxylic acid], the CC50 in data set [1] is 3240 nM; in data set [2] (setting [5]), 10000 nM. The fraction unbound at 4 h, 1 µM in data set [3] came out at 0.326. In addition, the IC50 in data set [4] is 126 nM.

For `Cc1nc2cc(S(=O)(=O)N(C)c3ccc([C@H]4C[C@@H](NCC(F)(F)F)C[C@@H](C(=O)Nc5ccc(C(F)(F)F)cc5F)[C@@H]4C(=O)O)cc3)ccc2n1C` (stereo in doubt) [Example 334, rel-(1R,2R,4R,6S)-2-((2-fluoro-4-(trifluoromethyl)phenyl)carbamoyl)-4-((2,2,2-trifluoroethyl)amino)-6-(4-((N,1,2-trimethyl-1H-benzo[d]imidazole)-5-sulfonamido)phenyl)cyclohexane-1-carboxylic acid], the CC50 in data set [1] was 45.7 nM; in data set [2] (setting [5]), 251 nM; in data set [2] (setting [6]), 251 nM. Further, the fraction unbound at 4 h, 1 µM in data set [3] was found to be 0.183. In addition, in data set [4], the IC50 is 1.58 nM.

With `Cc1nc2cc(S(=O)(=O)N(C)c3ccc([C@H]4C[C@H](NCC(F)(F)F)C[C@@H](C(=O)Nc5ccc(C(F)(F)F)cc5F)[C@@H]4C(=O)O)cc3)ccc2n1C` (stereo in doubt) [Example 336, rel-(1R,2R,4S,6S)-2-((2-fluoro-4-(trifluoromethyl)phenyl)carbamoyl)-4-((2,2,2-trifluoroethyl)amino)-6-(4-((N,1,2-trimethyl-1H-benzo[d]imidazole)-5-sulfonamido)phenyl)cyclohexane-1-carboxylic acid], the CC50 in data set [1] was 155 nM; in data set [2] (setting [5]) it was 3160 nM; in data set [2] (setting [6]), 3160 nM. The fraction unbound at 4 h, 1 µM in data set [3] stood at 0.0491. In addition, in data set [4], the IC50 is 1.58 nM.

For `Cc1nc2cc(S(=O)(=O)N(C)c3ccc([C@@H]4C[C@H](N5CCC(F)(F)CC5)C[C@H](C(=O)Nc5ccc(C(F)(F)F)cc5F)[C@H]4C(=O)O)cc3)ccc2n1C` (stereo in doubt) [Example 343], the CC50 was 1170 nM in data set [1], 5010 nM in data set [2] (setting [5]) and 5010 nM in data set [2] (setting [6]). Further, the fraction unbound at 4 h, 1 µM in data set [3] stood at 0.237. Also, in data set [4], the IC50 was 100 nM.

Consider `Cc1nc2cc(S(=O)(=O)N(C)c3ccc([C@H]4C[C@@H](N5CCC(F)(F)CC5)C[C@@H](C(=O)Nc5ccc(C(F)(F)F)cc5F)[C@@H]4C(=O)O)cc3)ccc2n1C` (stereo in doubt) [Example 344], for which the values for the CC50 in data set [1], in data set [2] (setting [5]) and in data set [2] (setting [6]) were 14.8 nM, 126 nM and 126 nM, respectively. Besides, the fraction unbound at 4 h, 1 µM in data set [3] amounted to 0.118. Further, in data set [4], the IC50 was 5.01 nM.

`Cc1nc2cc(S(=O)(=O)N(C)c3ccc([C@@H]4C[C@@H](N5CCC[C@@H](F)C5)C[C@H](C(=O)Nc5ccc(C(F)(F)F)cc5F)[C@H]4C(=O)O)cc3)ccc2n1C` (stereo in doubt) [Example 346, rel-(1R*,2R*,4S*,6S*)-2-((2-fluoro-4-(trifluoromethyl)phenyl)carbamoyl)-4-((R)-3-fluoropiperidin-1-yl)-6-(4-((N,1,2-trimethyl-1H-benzo[d]imidazole)-5-sulfonamido)phenyl)cyclohexane-1-carboxylic acid]: the CC50 in data set [1] is 4170 nM; in data set [2] (setting [5]), 10000 nM. For the same molecule, the fraction unbound at 4 h, 1 µM in data set [3] came to 0.419. The IC50 in data set [4] was 3980 nM.

On to `Cc1nc2cc(S(=O)(=O)N(C)c3ccc([C@H]4C[C@@H](N5CCC[C@H](F)C5)C[C@@H](C(=O)Nc5ccc(C(F)(F)F)cc5F)[C@@H]4C(=O)O)cc3)ccc2n1C` (stereo in doubt) [Example 350, rel-(1R*,2R*,4R*,6S*)-2-((2-fluoro-4-(trifluoromethyl)phenyl)carbamoyl)-4-((S)-3-fluoropiperidin-1-yl)-6-(4-((, 1,2-trimethyl-1H-benzo[d]imidazole)-5-sulfonamido)phenyl)cyclohexane-1-carboxylic acid], for which the figures for the CC50 in data set [1], in data set [2] (setting [5]) and in data set [2] (setting [6]) were 13.8 nM, 63.1 nM and 63.1 nM, respectively. Also, the fraction unbound at 4 h, 1 µM in data set [3] was determined as 0.218. Also, the IC50 in data set [4] is 1.58 nM.

In the case of `Cc1nc2cc(S(=O)(=O)N(C)c3ccc([C@H]4C[C@H](N5CCCC(F)(F)C5)C[C@@H](C(=O)Nc5ccc(C(F)(F)F)cc5F)[C@@H]4C(=O)O)cc3)ccc2n1C` (stereo in doubt) [Example 352, rel-(1R,2R,4S,6S)-4-(3,3-difluoropiperidin-1-yl)-2-((2-fluoro-4-(trifluoromethyl)phenyl)carbamoyl)-6-(4-((N,1,2-trimethyl-1H-benzo[d]imidazole)-5-sulfonamido)phenyl)cyclohexane-1-carboxylic acid], the CC50 is 112 nM in data set [1], 3980 nM in data set [2] (setting [5]) and 3980 nM in data set [2] (setting [6]). Further, the fraction unbound at 4 h, 1 µM in data set [3] was 0.028. Further, the IC50 in data set [4] was 3.98 nM.
